Experimental data published in US20230414758A1, “CAPSAICIN-DERIVED PHOTOSENSITIZER, AND PREPARATION METHOD AND USE THEREOF” (priority 2022, published 2023).

How the values were obtained:
TRPV1 protein = biological target: T1, TRPV1 protein (Mus musculus, UniProt Q704Y3); test: Calcium regulation ability at the cellular level, Fluo-8 AM staining, confocal microscopy; type: cell-based; details: 4T1 cells
T1 construct: endogenous in cells; host or cells: 4T1 cells
Method: The specific operations were as follows.
A high-glucose DMEM cell culture medium containing 10% fetal bovine serum and 5% double antibodies (the following media all contained 10% fetal bovine serum and 5% double antibodies) was prepared. Triple negative breast cancer 4T1 cells in logarithmic growth phase were seeded in a Confocal cell culture dish at a density of 1.0×10^4 cells/well, and incubated in a cell incubator (37° C., 5% CO2) for 12 hrs. […] The cells were incubated in an incubator for another 12 hrs, and the culture medium was changed after incubation. The irradiation group was irradiated with LED light (660 nm, 20 mW cm^−2) for 15 min (without treatment in the non-irradiation group). After irradiation, the culture medium was discarded. The cells were rinsed three times with PBS, and the rinsed cells were stained (10 min) with a fluorescent dye Fluo-8 AM (50.0 μmol L^−1, 1.0 mL) for intracellular calcium. After staining, the cells were rinsed with PBS, and observed by laser confocal microscopy.

[1] = reference value used for calculation; cited from earlier work

T1 sequence (Q704Y3 whole entry): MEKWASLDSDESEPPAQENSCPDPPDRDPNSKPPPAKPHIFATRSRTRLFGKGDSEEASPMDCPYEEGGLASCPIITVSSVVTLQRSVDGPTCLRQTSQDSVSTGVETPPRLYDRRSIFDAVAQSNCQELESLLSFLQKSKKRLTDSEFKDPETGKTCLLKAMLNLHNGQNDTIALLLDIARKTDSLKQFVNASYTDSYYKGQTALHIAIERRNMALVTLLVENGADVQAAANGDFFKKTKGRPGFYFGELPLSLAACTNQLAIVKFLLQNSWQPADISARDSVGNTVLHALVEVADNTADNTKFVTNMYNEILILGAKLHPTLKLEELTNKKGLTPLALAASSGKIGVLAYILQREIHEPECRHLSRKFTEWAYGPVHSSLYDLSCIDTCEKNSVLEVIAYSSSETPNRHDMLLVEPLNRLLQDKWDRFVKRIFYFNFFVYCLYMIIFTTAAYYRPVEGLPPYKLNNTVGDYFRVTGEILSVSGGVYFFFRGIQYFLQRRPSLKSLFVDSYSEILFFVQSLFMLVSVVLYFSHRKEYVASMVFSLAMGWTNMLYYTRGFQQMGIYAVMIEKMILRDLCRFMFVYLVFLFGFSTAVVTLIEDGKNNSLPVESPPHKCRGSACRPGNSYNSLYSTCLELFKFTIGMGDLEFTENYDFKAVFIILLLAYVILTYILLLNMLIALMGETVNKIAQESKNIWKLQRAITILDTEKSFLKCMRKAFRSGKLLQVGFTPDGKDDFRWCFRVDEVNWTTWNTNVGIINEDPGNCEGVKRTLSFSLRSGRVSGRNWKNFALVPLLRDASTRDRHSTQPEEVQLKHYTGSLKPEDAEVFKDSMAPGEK

Row | change of intracellular calcium fluorescence intensity after irradiation versus before irradiation (TRPV1 protein; LED 660 nm, 20 mW cm^−2, 15 min) | intracellular calcium fluorescence under non-irradiation and irradiation conditions (TRPV1 protein; compared with PBS and BDP groups) | SMILES | singlet oxygen quantum yield of the reference [1]
1 | does not change obviously | intense green fluorescence | COc1cc(CNC(=O)CCCC/C=C/C(C)C)ccc1O [CAP, capsaicin] | –
2 | – | – | [Zn+2].c1ccc2c(c1)-c1nc-2nc2[n-]c(nc3nc([n-]c4nc(n1)-c1ccccc1-4)-c1ccccc1-3)c1ccccc21 [ZnPc, Zinc phthalocyanine] | 1
